Data reported in patent US6858402B2 (The Regents of the University of California, priority 1996, dated 2005).
“And” between values parts separate entries of the source, which are not always exact repeats. Equal values may be shown once. Numbered stars: 1 amine (or outer) side, 2 acyl side, 3 side chain; on linkers, the order of the positions; unused ones are H or OH. Bridge positions count the residues as written; N and C are the ends. Square brackets hold non-standard residues; d marks the D form. Peptide text beside a SMILES is read from it. I, II: the chains in the order shown. Actinocin(9to1) = Cc1c2oc3c(C)ccc(C(=O)[*:1])c3nc-2c(C(=O)[*:2])c(N)c1=O; NMeV = CN[C@H](C(=O)O)C(C)C; Sar = CNCC(=O)O

Columns and labels:
THP-1 cells [1] = assay: Induction of TRRE by cytokines and hormones; format: cell-based, human; details: 2 hours stimulation, insulin 10^−7 M, IL-1β 10 ng/ml, IL-6 100 ng/ml; for induction of TRRE activity: IL-10 100 ng/ml, epinephrine 10^−6 M
sTNF-R = details: Seitz et al. (1997); cited from earlier work
THP-1 cells [2] = assay: Effect of inhibitors co-incubated with PMA on TRRE production; format: cell-based, human
Excerpt: Several inhibitors including cycloheximide (Chx) (an inhibitor of protein synthesis), actinomycin D (ActD) (an inhibitor of RNA synthesis), N-ethylmaleimide (NEM) (an inhibitor of membrane internalization and movement), cytochalasin B (CytB) (an inhibitor of microfilament formation), and colchicine (Col) (an inhibitor of microtubule formation) were purchased from Sigma Chemical (St. Louis, Mo.). THP-1 cells at a density of 1×10^6 cells/ml in RPMI-1640/1% FCS with 10^−6 M PMA was co-stimulated along with 10 μg/ml Chx, 1 μg/ml ActD, 1 mM NEM, 0.1 mM CytB, or 0.1 mM Col for 30 min at 37° C. in 5% CO2. Following centrifugation at 400×g for 5 min, the supernatant was discarded and the cells were washed once with serum-free medium. The cells were incubated for an additional 2 hours at the same density (1×10^6 cells/ml) in PMA-free RPMI-1640 with corresponding inhibitors.

THP-1 cells [3] = assay: as above; format: cell-based, human; details: inhibitor 0.01 mM with 10^−6 M PMA
TRRE = assay: Effect of protease inhibitors and divalent metal ions on partially-purified TRRE activity; format: biochemical, human; details: for effect on TRRE activity: partially-purified TRRE
Protocol: C75R cells and COS-1 cells were seeded into 24-well culture plates at a density of 2.5×10^5 cells/ml/well and incubated overnight (for 12 to 16 hours) in 5% CO2 at 37° C. […] (corresponding to A and C mentioned below, respectively). Simultaneously, C75R cells in 24-well plates were also incubated with 300 μl of fresh medium or buffer (corresponding to B mentioned below).
The precipitate was pelleted by centrifugation at 10,000×g for 30 min and resuspended in PBS in approximately twice the volume of the pellet. This solution was then dialyzed at 4° C. against 10 mM Tris-HCl, 60 mM NaCl, pH 7.0. This sample was loaded on an anion-exchange chromatography, Diethylaminoethyl (DEAE)-Sephadex A-25 column (Pharmacia Biotech) (2.5×10 cm) previously equilibrated with 50 mM Tris-HCl, 60 mM NaCl, pH 8.0.
Protease inhibitors were purchased from Sigma Chemical (St. Louis, Mo.), including phenylmethylsulfonyl fluoride (PMSF), 4-(2-aminoethyl)-benzenesulfonyl fluoride (AEBSF), 3,4-dichloroisocoumarin (3,4-DCI), N-α-tosyl-L-lysine chloromethyl ketone (TLCK), N-tosyl-L-phenylalanine chloromethyl ketone (TPCK), ethylenediaminetetraacetic acid (EDTA), ethyleneglycol bis (2-aminoethyl ether) tetraacetic acid (EGTA), 1,10-phenanthroline, and phosphoramidon. These inhibitors can be divided into the following classes: (i) serine protease inhibitors (4 mM PMSF, 0.5 mM AEBSF, and 0.1 mM 3,4-DCI); (ii) serine and cysteine protease inhibitors (0.1 mM TLCK and TPCK); (iii) chelating agents (2 mM EDTA, EGTA, and 1,10-phenanthroline); (iv) a metallo-endoprotease inhibitor (0.5 mM phosphoramidon); and (v) divalent heavy metal ions (2 mM CaCl2, MgCl2, MnCl2, ZnCl2, CoCl2, CuCl2, and FeCl2). […] The percent activity remaining (% control) was expressed relative to the control.
The percent activity remaining (% control) was calculated as above.

[4] = molecular target: human soluble p75 TNF-R (human) (UniProt P20333); assay: soluble p75 TNF-R-Affigel 10 affinity chromatography of TRRE after reaction with C75R cells; TRRE activity assay of fractions
[5] = molecular target: human p75 TNF-R (membrane-bound, on C75R transfected COS-1 cells or on THP-1 cells) (human) (UniProt P20333); assay: cell-based or functional assay
[6] = molecular target: TNF-R on L929 cells (murine); assay: cell-based or functional assay
[7] = molecular target: human p55 TNF-R (on THP-1 cells) (human) (UniProt P19438); assay: cell-based or functional assay
[8] = system: Lipopolysaccharide-induced shock; details: Yamamoto et al. (1997); cited from earlier work
[9] = inhibitor 0.1 mM with 10^−6 M PMA
[10] = 2 mM, preincubated 37° C. 30 min (Table 5)
[11] = 0.5 mM, preincubated 37° C. 30 min (Table 5)
[12] = 0.1 mM, preincubated 37° C. 30 min (Table 5)
[13] = inhibitor 1 mM with 10^−6 M PMA

Chain of human soluble p75 TNF-R (human) (P20333 23-257): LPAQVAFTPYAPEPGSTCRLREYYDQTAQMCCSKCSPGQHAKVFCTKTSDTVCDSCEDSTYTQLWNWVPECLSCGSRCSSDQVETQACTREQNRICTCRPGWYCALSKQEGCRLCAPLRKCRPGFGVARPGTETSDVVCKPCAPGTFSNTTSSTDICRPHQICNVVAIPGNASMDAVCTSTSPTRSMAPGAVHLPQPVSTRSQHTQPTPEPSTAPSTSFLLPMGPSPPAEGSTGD
Chain of human p75 TNF-R (membrane-bound, on C75R transfected COS-1 cells or on THP-1 cells) (human) (P20333 23-461 C75R limits assumed): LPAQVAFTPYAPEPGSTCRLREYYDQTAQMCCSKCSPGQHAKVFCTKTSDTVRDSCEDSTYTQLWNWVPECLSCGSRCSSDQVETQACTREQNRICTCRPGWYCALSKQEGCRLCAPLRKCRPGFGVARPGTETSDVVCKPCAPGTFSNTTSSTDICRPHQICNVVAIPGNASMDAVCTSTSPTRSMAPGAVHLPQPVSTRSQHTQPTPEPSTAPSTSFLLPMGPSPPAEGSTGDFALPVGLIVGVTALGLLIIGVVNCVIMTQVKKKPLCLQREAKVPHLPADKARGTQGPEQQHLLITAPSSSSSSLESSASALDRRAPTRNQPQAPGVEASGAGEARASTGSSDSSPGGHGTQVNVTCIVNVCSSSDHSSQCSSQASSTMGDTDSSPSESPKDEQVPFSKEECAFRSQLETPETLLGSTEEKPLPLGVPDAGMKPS
Chain of human p55 TNF-R (on THP-1 cells) (human) (P19438 30-455): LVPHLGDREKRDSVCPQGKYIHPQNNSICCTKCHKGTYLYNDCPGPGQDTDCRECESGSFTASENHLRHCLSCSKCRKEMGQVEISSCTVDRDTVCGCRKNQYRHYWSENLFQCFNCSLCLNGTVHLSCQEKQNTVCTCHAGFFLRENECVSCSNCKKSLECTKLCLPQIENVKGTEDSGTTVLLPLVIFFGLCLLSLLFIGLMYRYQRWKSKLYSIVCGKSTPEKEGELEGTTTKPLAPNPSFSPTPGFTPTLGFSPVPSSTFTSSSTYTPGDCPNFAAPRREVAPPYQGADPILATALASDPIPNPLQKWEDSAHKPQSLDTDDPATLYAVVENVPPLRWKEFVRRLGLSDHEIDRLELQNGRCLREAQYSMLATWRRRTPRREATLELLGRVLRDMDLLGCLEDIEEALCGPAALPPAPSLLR

## IL-1β: cytokine
THP-1 cells [1]
  induction of TRRE activity: no apparent TRRE activity
  induction of sTNF-R: induced sTNF-R

## gold sodium thiomalate
sTNF-R
  sTNF-R shedding: not affected

## C=C1[C@@H](C)[C@H]2[C@H](Cc3ccccc3)NC(=O)[C@]23OC(=O)/C=C/[C@H](O)CCC[C@@H](C)C/C=C/[C@H]3[C@@H]1O [Cytochalasin B, cytochalasin B]
THP-1 cells [2]; [9]
  % of TRRE production: 91%
THP-1 cells [3]
  % of TRRE production: 103%

## O=C(O)CN(CCOCCOCCN(CC(=O)O)CC(=O)O)CC(=O)O [EGTA, ethyleneglycol bis (2-aminoethyl ether) tetraacetic acid]
TRRE; [10]
  % Control of TRRE activity: 73% and 73 ± 4%

## TNF receptor releasing enzyme (TRRE), from PMA-stimulated THP-1 cells
[4]
  percent of recovered TRRE activity in the elution of the soluble p75 TNF-R affinity column: 25%
  percent of recovered TRRE activity in the flow through of the soluble p75 TNF-R affinity column (not retained): 53%
  percent of recovered TRRE activity in the wash of the soluble p75 TNF-R affinity column (not retained): 22%
[5]
  cell surface expression on THP-1 cells after 5,000 U/ml TRRE (flow cytometry, percent control of MFI): 49 % control
  soluble p75 TNF-R released from THP-1 cells (ELISA) after 1,000 U/ml TRRE for 30 min: 1660 pg/mL
[6]
  ratio of surviving L929 cells with 4 ng/ml TNF to cells without TNF, pretreated with 100 U/ml TRRE (control without TRRE: 24%): 30%
  ratio of surviving L929 cells with 4 ng/ml TNF to cells without TNF, pretreated with 500 U/ml TRRE (control without TRRE: 24%): 38%
  ratio of surviving L929 cells with 4 ng/ml TNF to cells without TNF, pretreated with 2,500 U/ml TRRE (control without TRRE: 24%): 74%
[7]
  cell surface expression on THP-1 cells after 5,000 U/ml TRRE (flow cytometry, percent control of MFI): 8 % control
  soluble p55 TNF-R released from THP-1 cells (ELISA) after 1,000 U/ml TRRE for 30 min: 2380 pg/mL

## [Ca+2].[Cl-].[Cl-] [Ca^2+, CaCl2]
TRRE; [10]
  % Control of TRRE activity: 151% and 151 ± 23%
TRRE; 4 mM (Table 6)
  % Control of TRRE activity: 189±4%

## CNC[C@H](O)c1ccc(O)c(O)c1 [epinephrine]
THP-1 cells [1]
  induction of TRRE activity: induced TRRE activity

## [Cl][Cu][Cl] [Cu^2+, CuCl2]
TRRE; [10]
  % Control of TRRE activity: 47% and 47 ± 21%

## [Cl][Mn][Cl] [Mn^2+, MnCl2]
TRRE; [10]
  % Control of TRRE activity: 157% and 157 ± 33%

## [Cl-].[Cl-].[Zn+2] [Zn^2+, ZnCl2]
TRRE; 0.1 mM (Table 6)
  % Control of TRRE activity: 122±6%
TRRE; [10]
  % Control of TRRE activity: 23% and 23 ± 15%

## CC(C)C[C@H](NP(=O)(O)O[C@@H]1O[C@@H](C)[C@H](O)[C@@H](O)[C@H]1O)C(=O)N[C@@H](Cc1c[nH]c2ccccc12)C(=O)O [Phosphoramidon, phosphoramidon]
TRRE; [11]
  % Control of TRRE activity: 84 ± 13%

## NCCc1ccc(S(=O)(=O)F)cc1 [AEBSF, 4-(2-aminoethyl)-benzenesulfonyl fluoride]
TRRE; [11]
  % Control of TRRE activity: 92 ± 8%
TRRE
  effect on TRRE activity: no effect

## [Cl][Fe][Cl] [Fe^2+, FeCl2]
TRRE; [10]
  % Control of TRRE activity: 98 ± 8%

## Cc1ccc(S(=O)(=O)N[C@@H](CCCCN)C(=O)CCl)cc1 [TLCK, N-α-tosyl-L-lysine chloromethyl ketone]
TRRE; [12]
  % Control of TRRE activity: 108 ± 5%
TRRE
  effect on TRRE activity: no effect

## IL-6: cytokine
THP-1 cells [1]
  induction of TRRE activity: no apparent TRRE activity
  induction of sTNF-R: induced sTNF-R

## O=C(O)CN(CCN(CC(=O)O)CC(=O)O)CC(=O)O [EDTA, ethylenediaminetetraacetic acid]
TRRE; [10]
  % Control of TRRE activity: 67% and 67 ± 7%

## [Cl-].[Cl-].[Mg+2] [Mg^2+, MgCl2]
TRRE; [10]
  % Control of TRRE activity: 127% and 127 ± 9%

## O=S(=O)(F)Cc1ccccc1 [PMSF, phenylmethylsulfonyl fluoride]
TRRE; 4 mM, preincubated 37° C. 30 min (Table 5)
  % Control of TRRE activity: 116 ± 4%
TRRE
  effect on TRRE activity: no effect

## CCCCC[C@H](O)/C=C/[C@H]1[C@H](O)CC(=O)[C@@H]1C/C=C\CCCC(=O)O [prostaglandin E2]
sTNF-R
  sTNF-R shedding: not affected

## O=C(C(=O)N1CCn2nc(-c3ccc(F)cc3)c(-c3ccncc3)c2N1)c1ccccc1.O=S(=O)(O)O [FR167653]
[8]
  Lipopolysaccharide-induced shock: ameliorated

## N-tosyl-L-phenylalanine chloromethyl ketone [TPCK]
TRRE; [12]
  % Control of TRRE activity: 107 ± 7%
TRRE
  effect on TRRE activity: no effect

## insulin: hormone
THP-1 cells [1]
  induction of TRRE activity: no apparent TRRE activity
  induction of sTNF-R: induced sTNF-R

## O=c1oc(Cl)c(Cl)c2ccccc12 [3,4-DCI, 3,4-dichloroisocoumarin]
TRRE; [12]
  % Control of TRRE activity: 108 ± 4%
TRRE
  effect on TRRE activity: no effect

## Cc1c2oc3c(C)ccc(C(=O)N[C@@H]4C(=O)N[C@H](C(C)C)C(=O)N5CCC[C@H]5C(=O)N(C)CC(=O)N(C)[C@@H](C(C)C)C(=O)O[C@@H]4C)c3nc-2c(C(=O)N[C@@H]2C(=O)N[C@H](C(C)C)C(=O)N3CCC[C@H]3C(=O)N(C)CC(=O)N(C)[C@@H](C(C)C)C(=O)O[C@@H]2C)c(N)c1=O [Actinomycin D, actinomycin D] (I: T[dV]P[Sar][NMeV] / II: T[dV]P[Sar][NMeV]; ester I:1-I:C, II:1-II:C; linker I:N-II:N via Actinocin(9to1))
THP-1 cells [2]; inhibitor 1 μg/ml with 10^−6 M PMA
  % of TRRE production: 104%
THP-1 cells [2]; inhibitor 1 μg/ml with 10^−6 M PMA, listed as ActD
  % of TRRE production: 97%

## C[C@@H]1C[C@@H]([C@H](O)CC2CC(=O)NC(=O)C2)C(=O)[C@@H](C)C1 [Cycloheximide, cycloheximide]
THP-1 cells [2]; inhibitor 10 μg/ml with 10^−6 M PMA
  % of TRRE production: 97%
THP-1 cells [2]; inhibitor 10 μg/ml with 10^−6 M PMA, listed as Chx
  % of TRRE production: 104%

## COc1cc2c(c(OC)c1OC)-c1ccc(OC)c(=O)cc1[C@@H](NC(C)=O)CC2 [Colchicine, colchicine]
THP-1 cells [2]; [9]
  % of TRRE production: 111%
THP-1 cells [2]; [13]
  % of TRRE production: 125%
THP-1 cells [3]
  % of TRRE production: 95%

## [Cl-].[Cl-].[Co+2] [Co^2+, CoCl2]
TRRE; [10]
  % Control of TRRE activity: 123% and 123 ± 15%

## c1cnc2c(c1)ccc1cccnc12 [1,10-Phenanthroline, 1,10-phenanthroline]
TRRE; 2 mM (Table 6)
  % Control of TRRE activity: 47 ± 9%
TRRE; [10]
  % Control of TRRE activity: 41 ± 6%
TRRE; 2 mM, preincubated 37° C. 30 min (Table 5), listed as 1,10-phenanthroline
  % Control of TRRE activity: 41%

## CCN1C(=O)C=CC1=O [N-ethyl-maleimide, N-ethylmaleimide]
THP-1 cells [2]; [13]
  % of TRRE production: 17%

B1: IL-10: cytokine (protein, UniProt P22301 19-178, looked up)
Interleukin-10: SPGQGTQSENSCTHFPGNLPNMLRDLRDAFSRVKTFFQMKDQLDNLLLKESLLEDFKGYLGCQALSEMIQFYLEEVMPQAENQDPDIKAHVNSLGENLKTLRLRLRRCHRFLPCENKSKAVEQVKNAFNKLQEKGIYKAMSEFDIFINYIEAYMTMKIRN
THP-1 cells [1]
  induction of TRRE activity: induced TRRE activity
